Among the data in patent US8987195B2 (priority 2012, dated 2015) are EC50 and IC50 values, retold here.

Assay [1] deals with HCV genotype 1b replicon. Kind of assay: HCV replicon assay, genotype 1b replicon EC50. In kind it is cell-based, Hepatitis C virus. The following applies: genotype 1b replicon, read-out: EC50 [gt-1b]. The essentials: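 Cells harbouring a stable replicon are grown under G418 selection, then plated with test compound in G418-free medium for 24-48 hours. After washing and lysis, RNA or luciferase signal is measured and expressed as percent of DMSO control to give EC50.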
On the technique in general: In antiviral work, replicon cells carry a viral genome segment that copies itself.

The target in assay [2] is HCV NS3/4A protease genotype 1b (Hepatitis C virus genotype 1b, UniProt P26663). Kind of assay: HCV NS3/4A protease time-resolved fluorescence (TRF) assay, Ki against genotype 1b. The following applies: IC50 [gt-1b] (nM), NS3/4A genotype 1b, enzyme 0.2 nM. It is filed as biochemical. The essentials: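 Enzyme was pre-incubated 30 min with inhibitor in HEPES pH 7.5 buffer (150 mM NaCl, 15% glycerol, 10 mM DTT). Reaction ran 2.5 h at room temperature with 25 nM europium TRF peptide substrate, read at ex 340/em 615 nm. Enzyme levels: 0.2 nM (1b), 0.4 nM (A156T), 0.025 nM (3a). Ki came from four-parameter IC50 via IC50=Ki(1+[S]/KM).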

Like-named read-outs stand apart in the source and are kept apart here.

Usually EC50 stands for the concentration needed to bring the measured effect to its halfway point. The term IC50 denotes the midpoint of a concentration-inhibition curve. For `Cc1nc2c(F)cccc2c2c1O[C@]1(CC2)C[C@H]2C(=O)N[C@]3(C(=O)NS(=O)(=O)C4CC4)C[C@H]3/C=C\CCCCC[C@H](NC(=O)OC(C)(C)C)C(=O)N2C1` [Example 107, tert-butyl {(2R,6S,12Z,13aS,14aR,16aS)-14a-[(cyclopropylsulfonyl)carbamoyl]-7′-fluoro-5′-methyl-5,16-dioxo-1,1′,2′,5,6,7,8,9,10,11,13a,14,14a,15,16,16a-hexadecahydrospiro[cyclopropa[e]pyrrolo[1,2-a][1,4]diazacyclopentadecine-2,3′-pyrano[2,3-c]quinolin]-6-yl}carbamate], in assay [1] (Hepatitis C virus), the EC50 amounted to 3.48 nM. The molecule further yielded an IC50 in assay [2] of 0.014 nM.

Turning to `Cc1ccc2nc(C)c3c(c2c1)CC[C@]1(C[C@H]2C(=O)N[C@]4(C(=O)NS(=O)(=O)C5(C)CC5)C[C@H]4/C=C\CCCCC[C@H](NC(=O)OCC(C)C)C(=O)N2C1)O3` [Example 108, 2-methylpropyl [(2R,6S,12Z,13aS,14aR,16aS)-5′,9′-dimethyl-14a-{[(1-methylcyclopropyl)sulfonyl]carbamoyl}-5,16-dioxo-1,1′,2′,5,6,7,8,9,10,11,13a,14,14a,15,16,16a-hexadecahydrospiro[cyclopropa[e]pyrrolo[1,2-a][1,4]diazacyclopentadecine-2,3′-pyrano[2,3-c]quinolin]-6-yl]carbamate], in assay [1] (Hepatitis C virus), the EC50 was 1.23 nM. This molecule displayed an IC50 in assay [2] of 0.007 nM.

Consider `Cc1ccc2nc(C)c3c(c2c1)CC[C@]1(C[C@H]2C(=O)N[C@]4(C(=O)NS(=O)(=O)C5(C)CC5)C[C@H]4/C=C\CCCCC[C@H](NC(=O)OC(C)C)C(=O)N2C1)O3` [Example 109, propan-2-yl [(2R,6S,12Z,13aS,14aR,16aS)-5′,9′-dimethyl-14a-{[(1-methylcyclopropyl)sulfonyl]carbamoyl}-5,16-dioxo-1,1′,2′,5,6,7,8,9,10,11,13a,14,14a,15,16,16a-hexadecahydrospiro[cyclopropa[e]pyrrolo[1,2-a][1,4]diazacyclopentadecine-2,3′-pyrano[2,3-c]quinolin]-6-yl]carbamate], for which, in assay [1] (Hepatitis C virus), the EC50 came to 0.944 nM. Besides, in assay [2], the IC50 was 0.011 nM.

As to `CC(C)COC(=O)N[C@H]1CCCCC/C=C\[C@@H]2C[C@@]2(C(=O)NS(=O)(=O)C2(C)CC2)NC(=O)[C@@H]2C[C@]3(CCc4c(cnc5ccccc45)O3)CN2C1=O` [Example 110, 2-methylpropyl [(2R,6S,12Z,13aS,14aR,16aS)-14a-{[(1-methylcyclopropyl)sulfonyl]carbamoyl}-5,16-dioxo-1,1′,2′,5,6,7,8,9,10,11,13a,14,14a,15,16,16a-hexadecahydrospiro[cyclopropa[e]pyrrolo[1,2-a][1,4]diazacyclopentadecine-2,3′-pyrano[2,3-c]quinolin]-6-yl]carbamate], the EC50 in assay [1] (Hepatitis C virus) was found to be 47.7 nM. Inhibition in assay [2] was half-maximal at 0.806 nM (IC50).

Turning to `CC1(OC(=O)N[C@H]2CCCCC/C=C\[C@@H]3C[C@@]3(C(=O)NS(=O)(=O)C3(C)CC3)NC(=O)[C@@H]3C[C@]4(CCc5c(c(C6CC6)nc6ccccc56)O4)CN3C2=O)CCC1` [Example 111, 1-methylcyclobutyl [(2R,6S,12Z,13aS,14aR,16aS)-5′-cyclopropyl-14a-{[(1-methylcyclopropyl)sulfonyl]carbamoyl}-5,16-dioxo-1,1′,2′,5,6,7,8,9,10,11,13a,14,14a,15,16,16a-hexadecahydrospiro[cyclopropa[e]pyrrolo[1,2-a][1,4]diazacyclopentadecine-2,3′-pyrano[2,3-c]quinolin]-6-yl]carbamate], the EC50 in assay [1] (Hepatitis C virus) is 0.685 nM. In assay [2], this molecule gave an IC50 of 0.011 nM.

Take `Cc1nc2ccccc2c2c1O[C@@]1(C[C@H]3C(=O)N[C@]4(C(=O)NS(=O)(=O)C5(C)CC5)C[C@H]4/C=C\CCCCC[C@H](NC(=O)OC4CC(F)(F)C4(F)F)C(=O)N3C1)CC2(F)F` (stereo partly drawn) [Example 112, 2,2,3,3-tetrafluorocyclobutyl [(2S,6S,12Z,13aS,14aR,16aS)-1′,1′-difluoro-5′-methyl-14a-{[(1-methylcyclopropyl)sulfonyl]carbamoyl}-5,16-dioxo-1,1′,2′,5,6,7,8,9,10,11,13a,14,14a,15,16,16a-hexadecahydrospiro[cyclopropa[e]pyrrolo[1,2-a][1,4]diazacyclopentadecine-2,3′-pyrano[2,3-c]quinolin]-6-yl]carbamate]: the EC50 in assay [1] (Hepatitis C virus) was 32 nM. In assay [2], this molecule showed an IC50 of 0.226 nM.

Turning to `Cc1nc2c(C(F)(F)F)cccc2c2c1O[C@]1(CC2)C[C@H]2C(=O)N[C@]3(C(=O)NS(=O)(=O)C4(C)CC4)C[C@H]3/C=C\CCCCC[C@H](NC(=O)OCC(C)C)C(=O)N2C1` [Example 113, 2-methylpropyl [(2R,6S,12Z,13aS,14aR,16aS)-5′-methyl-14a-{[(1-methylcyclopropyl)sulfonyl]carbamoyl}-5,16-dioxo-7′-(trifluoromethyl)-1,1′,2′,5,6,7,8,9,10,11,13a,14,14a,15,16,16a-hexadecahydrospiro[cyclopropa[e]pyrrolo[1,2-a][1,4]diazacyclopentadecine-2,3′-pyrano[2,3-c]quinolin]-6-yl]carbamate], in assay [1] (Hepatitis C virus), the EC50 was found to be 3.95 nM. In assay [2], this molecule yielded an IC50 of 0.298 nM.

Take `Cc1nc2c(C(F)(F)F)cccc2c2c1O[C@]1(CC2)C[C@H]2C(=O)N[C@]3(C(=O)NS(=O)(=O)C4(C)CC4)C[C@H]3/C=C\CCCCC[C@H](NC(=O)OC(C)C)C(=O)N2C1` [Example 114, propan-2-yl [(2R,6S,12Z,13aS,14aR,16aS)-5′-methyl-14a-{[(1-methylcyclopropyl)sulfonyl]carbamoyl}-5,16-dioxo-7′-(trifluoromethyl)-1,1′,2′,5,6,7,8,9,10,11,13a,14,14a,15,16,16a-hexadecahydrospiro[cyclopropa[e]pyrrolo[1,2-a][1,4]diazacyclopentadecine-2,3′-pyrano[2,3-c]quinolin]-6-yl]carbamate]: the EC50 in assay [1] (Hepatitis C virus) was determined as 3.53 nM. It took 0.308 nM to reach half-maximal inhibition in assay [2] (IC50).

On to `CCOC(=O)N[C@H]1CCCCC/C=C\[C@@H]2C[C@@]2(C(=O)NS(=O)(=O)C2(C)CC2)NC(=O)[C@@H]2C[C@]3(CCc4c(c(C)nc5ccccc45)O3)CN2C1=O` [Example 115, ethyl [(2R,6S,12Z,13aS,14aR,16aS)-5′-methyl-14a-{[(1-methylcyclopropyl)sulfonyl]carbamoyl}-5,16-dioxo-1,1′,2′,5,6,7,8,9,10,11,13a,14,14a,15,16,16a-hexadecahydrospiro[cyclopropa[e]pyrrolo[1,2-a][1,4]diazacyclopentadecine-2,3′-pyrano[2,3-c]quinolin]-6-yl]carbamate], for which the EC50 in assay [1] (Hepatitis C virus) turned out to be 6.86 nM. The same molecule registered an IC50 in assay [2] of 0.017 nM.

Take `Cc1nc2ccccc2c2c1O[C@]1(CC2)C[C@H]2C(=O)N[C@]3(C(=O)NS(=O)(=O)C4(C)CC4)C[C@H]3/C=C\CCCCC[C@H](NC(=O)OC3(C(C)C)CC3)C(=O)N2C1` [Example 116, 1-(propan-2-yl)cyclopropyl [(2R,6S,12Z,13aS,14aR,16aS)-5′-methyl-14a-{[(1-methylcyclopropyl)sulfonyl]carbamoyl}-5,16-dioxo-1,1′,2′,5,6,7,8,9,10,11,13a,14,14a,15,16,16a-hexadecahydrospiro[cyclopropa[e]pyrrolo[1,2-a][1,4]diazacyclopentadecine-2,3′-pyrano[2,3-c]quinolin]-6-yl]carbamate]: the EC50 in assay [1] (Hepatitis C virus) came to 0.312 nM. The half-maximal inhibitory concentration (IC50) in assay [2] turned out to be 0.008 nM.

Turning to `Cc1nc2ccccc2c2c1O[C@]1(CC2O)C[C@H]2C(=O)N[C@]3(C(=O)NS(=O)(=O)C4(C)CC4)C[C@H]3/C=C\CCCCC[C@H](NC(=O)OC(C)(C)C)C(=O)N2C1` (stereo partly drawn) [Example 118, tert-butyl [(2S,6S,12Z,13aS,14aR,16aS)-1′-hydroxy-5′-methyl-14a-{[(1-methylcyclopropyl)sulfonyl]carbamoyl}-5,16-dioxo-1,1′,2′,5,6,7,8,9,10,11,13a,14,14a,15,16,16a-hexadecahydrospiro[cyclopropa[e]pyrrolo[1,2-a][1,4]diazacyclopentadecine-2,3′-pyrano[2,3-c]quinolin]-6-yl]carbamate], in assay [1], the EC50 was 47.3 nM. In assay [2], half-maximal inhibition (IC50) required 0.027 nM.

For the molecule `Cc1nc2ccccc2c2c1O[C@]1(CC2O)C[C@H]2C(=O)N[C@]3(C(=O)NS(=O)(=O)C4(C)CC4)C[C@H]3/C=C\CCCCC[C@H](NC(=O)OC(C)C)C(=O)N2C1` (stereo partly drawn) [Example 119, propan-2-yl [(2S,6S,12Z,14aR,16aS)-1′-hydroxy-5′-methyl-14a-{[(1-methylcyclopropyl)sulfonyl]carbamoyl}-5,16-dioxo-1,1′,2′,5,6,7,8,9,10,11,13a,14,14a,15,16,16a-hexadecahydrospiro[cyclopropa[e]pyrrolo[1,2-a][1,4]diazacyclopentadecine-2,3′-pyrano[2,3-c]quinolin]-6-yl]carbamate], in assay [1] (Hepatitis C virus), the EC50 was roughly 78.5 nM. In addition, the IC50 in assay [2] amounted to 0.031 nM.

For `Cc1nc2ccccc2c2c1O[C@]1(CC2O)C[C@H]2C(=O)N[C@]3(C(=O)NS(=O)(=O)C4(C)CC4)C[C@H]3/C=C\CCCCC[C@H](NC(=O)OC(C)(C)C)C(=O)N2C1` (stereo partly drawn) [Example 120, tert-butyl [(2S,6S,12Z,13aS,14aR,16aS)-1′-hydroxy-5′-methyl-14a-{[(1-methylcyclopropyl)sulfonyl]carbamoyl}-5,16-dioxo-1,1′,2′,5,6,7,8,9,10,11,13a,14,14a,15,16,16a-hexadecahydrospiro[cyclopropa[e]pyrrolo[1,2-a][1,4]diazacyclopentadecine-2,3′-pyrano[2,3-c]quinolin]-6-yl]carbamate], the EC50 in assay [1] amounted to 19 nM. This molecule had an IC50 in assay [2] of 0.032 nM.
